Measurements as given in ChEMBL document CHEMBL1143261, “Enantioselective actions of 4-amino-3-hydroxybutanoic acid and (3-amino-2-hydroxypropyl)methylphosphinic acid at recombinant GABA(C) receptors” (Bioorg Med Chem Lett, 2008).

How the values were obtained:
[1] = target: T1, Gamma-aminobutyric acid receptor subunit rho-1 (Homo sapiens, UniProt P24046); test: Antagonist activity at human recombinant GABAc rho1 receptor expressed in Xenopus laevis oocytes at -60mV by two-electrode voltage clamp method; assay type: functional, cell-based, Oocyte
T1 sequence (P24046 whole entry): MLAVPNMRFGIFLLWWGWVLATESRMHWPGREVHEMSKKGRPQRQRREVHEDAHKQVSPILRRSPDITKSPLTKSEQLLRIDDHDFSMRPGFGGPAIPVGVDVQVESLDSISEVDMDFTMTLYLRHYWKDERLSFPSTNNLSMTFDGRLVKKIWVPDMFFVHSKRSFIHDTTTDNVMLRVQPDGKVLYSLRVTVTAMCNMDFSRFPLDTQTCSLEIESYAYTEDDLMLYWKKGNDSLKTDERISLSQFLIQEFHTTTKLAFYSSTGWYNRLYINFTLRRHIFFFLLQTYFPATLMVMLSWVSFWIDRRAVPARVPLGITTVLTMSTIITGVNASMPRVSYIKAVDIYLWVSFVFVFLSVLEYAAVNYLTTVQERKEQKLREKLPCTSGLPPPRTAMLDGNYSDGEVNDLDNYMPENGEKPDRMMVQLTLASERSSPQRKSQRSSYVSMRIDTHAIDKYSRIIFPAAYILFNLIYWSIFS

[2] = target: T1, Gamma-aminobutyric acid receptor subunit rho-1; test: Agonist activity at human recombinant GABAc rho1 receptor expressed in Xenopus laevis oocytes at -60mV by two-electrode voltage clamp method; assay type: functional, cell-based, Oocyte

Row | Compound | IC50 [1] [µM] | EC50 [2] [µM]
1 | CP(=O)(O)C[C@@H](O)CN | 17.1 | 
2 | CP(=O)(O)C[C@H](O)CN | 5.4 | 
3 | C[C@@H](CCN)C(=O)O |  | 65
4 | C[C@H](CCN)C(=O)O | 16 | 
5 | NC[C@H](O)CC(=O)O |  | 19.1
6 | NC[C@@H](O)CC(=O)O |  | 44.8
